Values of other authors in patent US20210290592A1, “COMPOSITION AND METHOD FOR OPIOID SPARING” (Zelira Therapeutics Operations Pty Ltd., priority 2018, published 2021).

Conditions: treatment group, 5 mg THC, n=105; 74 mg in control group, difference not statistically significant

For `CCCCCc1cc(O)c2c(c1)OC(C)(C)[C@@H]1CCC(C)=C[C@@H]21` [dronabinol], which “Median dose of micro-opioid agonist piritramide in the two days post surgery” value is on record?
The value was 54 mg.
